The record followed here is patent US20260125378A2, “Heterocyclic Compounds” (BeOne Medicines I GmbH, priority 2023, published 2026).

By IC50 is commonly meant the concentration that inhibits the measured activity by half. A lower IC50 goes with greater potency.

For experiment [1], the target named is T1, Full length DGKζ (in-house protein M1-V929) (Homo sapiens, UniProt Q13574).
T1 construct: His (N); TEV site (N); made in house; host or cells: Sf9 insect cells (Bac-to-Bac baculovirus)
In words: Biochemical DGK IC50 assay (ADP-Glo, lipid micelle substrate), DGKζ. As to conditions: 1 hour preincubation, 1 hour reaction, room temperature. The procedure:
(§1) Enzymatic reactions of DGKζ, DGKα and DGKδ were performed using ADP-Glo assay with lipid micelle substrate. […] Full length DGKα (D21-10BG, SignalChem) and full length DGKδ (D23-10G, SignalChem) were purchased. Lipid micelle was prepared by dissolving DAG (Sigma, 317505-10 MG) and PS (Sigma, P7769-100 MG) with chloroform which was furtherly removed by rotary evaporation. The obtained residue was resuspended in buffer containing 25 mM HEPES pH 7.0, 0.5 mM EDTA and 160 mM Octyl β-D glucopyranoside by vigorous mixing and ultrasonic (IID, Scientz).
(§2) The inhibition activities testing for the compound disclosed herein were carried out at room temperature in assay buffer containing 50 mM HEPES, 10 mM MgCl2, 0.01% BSA, 0.1 mM Na3VO4, 0.005% Tween-20 and 0.01 mM CaCl2). Compounds in DMSO were dispensed into wells of a black 384 well plate (Corning 4514) using D300e digital dispenser (Tecan). […] 3 μL 2× enzyme solution was added to wells. […] After 1 hour reaction, 5 μL ADP-Glo reagent (Promga V9101) was added and incubated for 40 minutes. 10 μL Kinase Detection reagent was added and incubated for 30 minutes. Luminescence was measured on a microplate reader (PHERAstar FSX, BMG labtech). The IC50S are calculated based on inhibition of enzyme activity in the presence of increasing concentrations of compounds.
Human His-TEV-DGK-zeta-pFastBac1 and human baculovirus samples was generated using the Bac- to -Bac baculovirus expression system (Invitrogen) according to the manufacturer's protocol. The DNA used for expression of DGK-zeta, have SEQ ID Nos: 1. Baculovirus amplification was achieved using infected SF9 cells at 1:2000 virus/cells ratios, and grown for 96 hours at 27° C. post-transfected.
The expression scaled up for each protein was carried out in the […] from CORNING. 4 L of 3×10^6 cells/mL Sf9 cells (Expression System, Invitrogen) grown in SF900™ II SFM insect medium (Expression System) was infected with virus stock at 1:200 virus/cells ratio, and grown for 48 hours at 27° C. post-transfection. The infected cell culture was harvested by centrifugation at 6000 rpm for 15 min 4° C. in a SORVALL LYNX6000 centrifuge. The cell pellets were stored at −80° C.
Full length human DGKζ produced as described above, was purified from Sf9 baculovirus-infected insect cell paste. The cells were lysed using sonication method, and the lysates were clarified by centrifugation.
(ADP-Glo turns the ADP formed in a reaction into a luminescent signal.)

In experiment [2] the target is T2, Full length DGKα (D21-10BG, SignalChem) (Homo sapiens, UniProt P23743).
T2 construct: Full length DGKα (D21-10BG, SignalChem); purchased SignalChem D21-10BG
T2 sequence (P23743 whole entry): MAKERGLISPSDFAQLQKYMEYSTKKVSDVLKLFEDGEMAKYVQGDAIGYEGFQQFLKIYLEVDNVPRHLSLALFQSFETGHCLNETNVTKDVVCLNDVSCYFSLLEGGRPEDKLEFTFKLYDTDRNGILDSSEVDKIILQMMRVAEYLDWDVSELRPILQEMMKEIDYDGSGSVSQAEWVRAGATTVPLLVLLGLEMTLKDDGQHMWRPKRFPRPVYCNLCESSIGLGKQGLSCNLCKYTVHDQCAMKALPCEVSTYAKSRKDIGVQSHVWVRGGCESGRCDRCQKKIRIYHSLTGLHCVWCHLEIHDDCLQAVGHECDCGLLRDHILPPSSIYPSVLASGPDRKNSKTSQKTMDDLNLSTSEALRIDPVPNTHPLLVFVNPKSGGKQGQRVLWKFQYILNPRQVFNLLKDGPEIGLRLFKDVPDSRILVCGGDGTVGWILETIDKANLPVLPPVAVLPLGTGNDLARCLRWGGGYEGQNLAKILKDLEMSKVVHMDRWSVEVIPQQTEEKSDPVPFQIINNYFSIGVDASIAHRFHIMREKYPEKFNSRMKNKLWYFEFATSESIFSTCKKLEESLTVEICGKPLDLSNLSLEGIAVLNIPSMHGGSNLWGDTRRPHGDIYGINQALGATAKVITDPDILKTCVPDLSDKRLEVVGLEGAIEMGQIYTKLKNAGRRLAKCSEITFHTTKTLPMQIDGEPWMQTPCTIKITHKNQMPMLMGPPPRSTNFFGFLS
In words: Biochemical DGK IC50 assay (ADP-Glo, lipid micelle substrate), DGKα. As to conditions: 1 hour preincubation, 1 hour reaction, room temperature. The procedure:
as §1, §2

T1 sequence (Q13574 1-929 isoform Q13574-4): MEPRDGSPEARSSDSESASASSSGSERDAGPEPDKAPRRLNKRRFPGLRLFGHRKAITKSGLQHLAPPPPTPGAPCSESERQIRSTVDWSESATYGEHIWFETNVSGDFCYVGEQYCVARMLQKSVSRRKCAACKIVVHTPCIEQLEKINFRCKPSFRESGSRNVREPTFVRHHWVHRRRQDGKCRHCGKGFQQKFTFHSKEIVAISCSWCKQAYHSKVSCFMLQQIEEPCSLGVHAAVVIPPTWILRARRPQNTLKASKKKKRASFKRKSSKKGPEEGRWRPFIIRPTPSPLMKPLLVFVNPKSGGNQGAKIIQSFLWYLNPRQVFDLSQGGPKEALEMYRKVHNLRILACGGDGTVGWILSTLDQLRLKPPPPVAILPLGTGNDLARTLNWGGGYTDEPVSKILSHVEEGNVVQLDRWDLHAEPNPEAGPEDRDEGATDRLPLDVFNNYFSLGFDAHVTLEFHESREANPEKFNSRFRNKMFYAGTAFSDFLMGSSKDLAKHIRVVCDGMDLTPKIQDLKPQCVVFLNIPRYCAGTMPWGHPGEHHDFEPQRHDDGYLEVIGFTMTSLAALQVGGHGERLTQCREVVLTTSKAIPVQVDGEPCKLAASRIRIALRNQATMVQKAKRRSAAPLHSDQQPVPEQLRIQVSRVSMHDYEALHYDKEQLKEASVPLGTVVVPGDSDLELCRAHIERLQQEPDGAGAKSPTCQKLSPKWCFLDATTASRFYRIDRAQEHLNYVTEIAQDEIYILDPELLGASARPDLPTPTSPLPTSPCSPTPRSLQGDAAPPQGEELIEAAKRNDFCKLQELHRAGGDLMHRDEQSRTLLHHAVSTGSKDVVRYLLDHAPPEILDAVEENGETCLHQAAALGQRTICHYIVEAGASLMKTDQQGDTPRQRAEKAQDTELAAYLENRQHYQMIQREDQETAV

Regarding `CCn1c(CC#N)nc2c(N3C[C@@H](C)N(C(C)c4ccc(F)c(C(F)F)c4)C[C@@H]3C)nc(=O)n(C)c21` (stereo partly drawn) [Compound A112, 2-(6-((2S,5R)-4-(1-(3-(difluoromethyl)-4-fluorophenyl)ethyl)-2,5-dimethylpiperazin-1-yl)-9-ethyl-3-methyl-2-oxo-3,9-dihydro-2H-purin-8-yl)acetonitrile], the results for the half-maximal inhibitory concentration (IC50) in experiment [1] and in experiment [2] were 0.035 µM and over 150 µM, respectively.
Turning to `CCn1c(CC#N)nc2c(N3C[C@@H](C)N(C(C)c4c(F)cc5c(c4F)OC(C)(C)O5)C[C@@H]3C)nc(=O)n(C)c21` (single isomer, unassigned) [Compound A176a], the IC50 turned out to be 0.04 µM in experiment [1] and 13.1 µM in experiment [2].
For `CCn1c(CC#N)nc2c(N3C[C@@H](C)N(C(C)c4ccc5c(n4)OC(C)(C)CO5)C[C@@H]3C)c(F)c(=O)n(C)c21` (stereo partly drawn) [Compound A21, 2-(7-((2S,5R)-4-(1-(3,3-dimethyl-2,3-dihydro-[1,4]dioxino[2,3-b]pyridin-6-yl)ethyl)-2,5-dimethylpiperazin-1-yl)-3-ethyl-6-fluoro-4-methyl-5-oxo-4,5-dihydro-3H-imidazo[4,5-b]pyridin-2-yl)acetonitrile], in that order: 0.061 µM and over 150 µM.
Taken in the same sequence, the figures for `COC[C@H]1CN(C(C)c2ccc3c(c2)OCCO3)[C@H](C)CN1c1nc(=O)n(C)c2c1nc(CC#N)n2C` (single isomer, unassigned) [Compound A11a] were 0.764 µM and 57.8 µM.
For `CCn1c(CC#N)nc2c(N3C[C@@H](C)N(C(C)c4ccc5c(c4)CN(CC(F)(F)F)C5=O)C[C@@H]3C)nc(=O)n(C)c21` (stereo partly drawn) [Compound A82, 2-(6-((2S,5R)-2,5-dimethyl-4-(1-(1-oxo-2-(2,2,2-trifluoroethyl)isoindolin-5-yl)ethyl)piperazin-1-yl)-9-ethyl-3-methyl-2-oxo-3,9-dihydro-2H-purin-8-yl)acetonitrile], in that order: 0.201 µM and 9.52 µM.
Turning to `CCn1c(CC#N)nc2c(N3C[C@@H](C)N(C(C)c4ccc(C)c(C)n4)C[C@@H]3C)nc(=O)n(C)c21` (stereo partly drawn) [Compound A138, 2-(6-((2S,5R)-4-(1-(5,6-dimethylpyridin-2-yl)ethyl)-2,5-dimethylpiperazin-1-yl)-9-ethyl-3-methyl-2-oxo-3,9-dihydro-2H-purin-8-yl)acetonitrile], the IC50 in experiment [1] is 0.949 µM; in experiment [2], over 150 µM.
Taken in the same sequence, the figures for `CC[C@@H]1CN(c2nc(=O)n(C)c3c2nc(CC#N)n3CC)[C@@H](C)CN1C(C)c1ccc2c(c1)OC(C)(C)CO2` (stereo partly drawn) [Compound A65, 2-(6-((2S,5R)-4-(1-(3,3-dimethyl-2,3-dihydrobenzo[b][1,4]dioxin-6-yl)ethyl)-5-ethyl-2-methylpiperazin-1-yl)-9-ethyl-3-methyl-2-oxo-3,9-dihydro-2H-purin-8-yl)acetonitrile] were 0.0023 µM and 24.2 µM.
Taken in the same sequence, the figures for `CCn1c(CC#N)nc2c(N3C[C@@H](C)N(C(C)c4cccc5c4OC(F)(F)O5)C[C@@H]3C)nc(=O)n(C)c21` (stereo partly drawn) [Compound A187, 2-(6-((2S,5R)-4-(1-(2,2-difluorobenzo[d][1,3]dioxol-4-yl)ethyl)-2,5-dimethylpiperazin-1-yl)-9-ethyl-3-methyl-2-oxo-3,9-dihydro-2H-purin-8-yl)acetonitrile] were 0.407 µM and 115 µM.
For `CCn1c(=O)nc(N2C[C@@H](C)N(C(C)c3ccc4c(c3)OC(C)(C)CO4)C[C@@H]2C)c2nc(CC#N)n(C)c21` (single isomer, unassigned) [Compound A61a], in that order: 0.002 µM and 10.1 µM.
For the compound `CCn1c(CC#N)nc2c(N3C[C@@H](C)N(C(C)c4ccc(F)cc4C(F)(F)F)C[C@@H]3C)nc(=O)n(C)c21` (single isomer, unassigned) [Compound A35a], the half-inhibitory concentration (IC50) was 2.76 µM in experiment [1] and over 150 µM in experiment [2].
Take `CCn1c(CC#N)nc2c(N3C[C@@H](C)N(C(C)c4ccc(C(F)(F)F)c(C)c4)C[C@@H]3C)nc(=O)n(C)c21` (stereo partly drawn) [Compound A137, 2-(6-((2S,5R)-2,5-dimethyl-4-(1-(3-methyl-4-(trifluoromethyl)phenyl)ethyl)piperazin-1-yl)-9-ethyl-3-methyl-2-oxo-3,9-dihydro-2H-purin-8-yl)acetonitrile]: the values for the IC50 in experiment [1] and in experiment [2] were 0.064 µM and 48.7 µM, respectively.
Take `CC(c1cc(F)c2c(c1)OC(C)(C)CO2)N1C[C@H](C)N(c2nc(=O)n(C)c3c2nc(CC#N)n3C)C[C@H]1C` (single isomer, unassigned) [Compound A68b]: the 50% inhibitory concentration (IC50) in experiment [1] was determined as 0.199 µM; in experiment [2] it was 72.8 µM.
For `CCn1c(CC#N)nc2c(N3C[C@@H](C)N(C(C)c4cc5c(cc4F)OCC(C)(C)O5)C[C@@H]3C)nc(=O)n(C)c21` (single isomer, unassigned) [Compound A157b], in that order: 0.346 µM and 55.7 µM.
Taken in the same sequence, the figures for `COC[C@H]1CN(C(C)c2ccc(F)cc2C(F)(F)F)[C@H](C)CN1c1nc(=O)n(C)c2c1nc(CC#N)n2C` (single isomer, unassigned) [Compound A10a] were 0.405 µM and over 10 µM.
Taken in the same sequence, the figures for `Cc1cnc2ccc(C(C)N3C[C@H](C)N(c4c(F)c(=O)n(C)c5c4nc(CC#N)n5C)C[C@H]3C)cc2n1` (single isomer, unassigned) [Compound A23a] were 0.008 µM and 63.2 µM.
With `CCn1c(CC#N)nc2c(N3C[C@@H](C)N(C(C)c4ccc5c(n4)OC(C)(C)CO5)C[C@@H]3C)nc(=O)n(C)c21` (single isomer, unassigned) [Compound A74b], the IC50 was 4.87 µM in experiment [1] and over 150 µM in experiment [2].
For `CCc1nc2cc(C(C)N3C[C@H](C)N(c4nc(=O)n(C)c5c4nc(CC#N)n5CC)C[C@H]3C)ccc2s1` (mixture of isomers) [Compound A95, 2-(9-ethyl-6-((2S,5R)-4-(1-(2-ethylbenzo[d]thiazol-5-yl)ethyl)-2,5-dimethylpiperazin-1-yl)-3-methyl-2-oxo-3,9-dihydro-2H-purin-8-yl)acetonitrile], in that order: 0.042 µM and 50.5 µM.
Taken in the same sequence, the figures for `CC[C@@H]1CN(c2nc(=O)n(C)c3c2nc(CC#N)n3CC)[C@@H](C)CN1C(C)c1ccc2c(n1)OC(C)(C)CO2` (single isomer, unassigned) [Compound A158a] were 0.008 µM and 61.9 µM.
Taken in the same sequence, the figures for `CCCn1c(CC#N)nc2c(N3C[C@@H](C)N(C(C)c4ccc5c(c4)OC(C)(C)CO5)C[C@@H]3C)nc(=O)n(C)c21` (stereo partly drawn) [Compound A88, 2-(6-((2S,5R)-4-(1-(3,3-dimethyl-2,3-dihydrobenzo[b][1,4]dioxin-6-yl)ethyl)-2,5-dimethylpiperazin-1-yl)-3-methyl-2-oxo-9-propyl-3,9-dihydro-2H-purin-8-yl)acetonitrile] were 0.004 µM and 111 µM.
Consider `CCn1c(CC#N)nc2c(N3C[C@@H](C)N(C(C)c4ccc5c(=O)cc(C)oc5c4)C[C@@H]3C)nc(=O)n(C)c21` (stereo partly drawn) [Compound A191, 2-(6-((2S,5R)-2,5-dimethyl-4-(1-(2-methyl-4-oxo-4H-chromen-7-yl)ethyl)piperazin-1-yl)-9-ethyl-3-methyl-2-oxo-3,9-dihydro-2H-purin-8-yl)acetonitrile], for which the IC50 in experiment [1] stood at 0.078 µM; in experiment [2], 40.9 µM.
As for `CC(c1ccc2nccnc2c1)N1C[C@H](C)N(c2cc(=O)n(C)c3sc(CC#N)nc23)C[C@H]1C` (mixture of isomers) [Compound A194, 2-(7-((2S,5R)-2,5-dimethyl-4-(1-(quinoxalin-6-yl)ethyl)piperazin-1-yl)-4-methyl-5-oxo-4,5-dihydrothiazolo[5,4-b]pyridin-2-yl)acetonitrile], the 50% inhibitory concentration (IC50) in experiment [1] came to 0.007 µM; in experiment [2], 4.08 µM.
For `CCn1c(CC#N)nc2c(N3C[C@@H](C)N(C(C)c4cccc(C(C)(C)C#N)c4)C[C@@H]3C)nc(=O)n(C)c21` (stereo partly drawn) [Compound A134, 2-(3-(1-((2R,5S)-4-(8-(cyanomethyl)-9-ethyl-3-methyl-2-oxo-3,9-dihydro-2H-purin-6-yl)-2,5-dimethylpiperazin-1-yl)ethyl)phenyl)-2-methylpropanenitrile], in that order: 0.022 µM and 113 µM.
